A word on the pIC50: it is −log10 of the IC50, conventionally taken in molar units.

pIC50: −log10 of the molar value. Activity calls are given as the source filed them. No cut-off for these calls is given here.

Assay [1] has as its target T1, Mitogen-activated protein kinase kinase kinase 20 (Homo sapiens, UniProt Q9NYL2). As to the kind of experiment: Inhibition of recombinant ZAK (unknown origin) using ATP as substrate preincubated for 60 mins followed by substrate addition and measured after 40 mins by fluorescence based envision multilabel reader method.
Target sequence in this assay (Q9NYL2 whole entry): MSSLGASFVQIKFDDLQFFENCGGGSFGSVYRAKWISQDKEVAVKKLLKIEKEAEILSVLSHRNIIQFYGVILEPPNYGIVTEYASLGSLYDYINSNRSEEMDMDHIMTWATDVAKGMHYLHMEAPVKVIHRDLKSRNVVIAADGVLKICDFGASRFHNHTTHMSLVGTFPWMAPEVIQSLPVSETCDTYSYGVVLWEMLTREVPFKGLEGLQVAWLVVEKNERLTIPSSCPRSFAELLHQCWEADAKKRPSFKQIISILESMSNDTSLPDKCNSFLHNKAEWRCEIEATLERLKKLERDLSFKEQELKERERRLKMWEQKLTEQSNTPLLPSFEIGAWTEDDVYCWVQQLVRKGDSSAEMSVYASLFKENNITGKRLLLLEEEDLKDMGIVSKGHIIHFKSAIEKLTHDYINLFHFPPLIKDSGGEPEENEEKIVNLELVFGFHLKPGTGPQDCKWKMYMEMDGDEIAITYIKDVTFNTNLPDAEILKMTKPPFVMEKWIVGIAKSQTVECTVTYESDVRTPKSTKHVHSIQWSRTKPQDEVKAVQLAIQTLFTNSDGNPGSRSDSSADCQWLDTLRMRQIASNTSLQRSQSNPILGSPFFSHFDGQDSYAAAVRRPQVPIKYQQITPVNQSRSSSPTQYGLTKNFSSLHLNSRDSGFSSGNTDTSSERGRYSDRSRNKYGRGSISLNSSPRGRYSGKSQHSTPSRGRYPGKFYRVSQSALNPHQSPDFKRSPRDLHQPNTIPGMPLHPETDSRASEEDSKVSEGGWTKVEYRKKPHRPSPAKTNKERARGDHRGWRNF
Assay [2] concerns the target Serine/threonine-protein kinase B-raf (Homo sapiens, UniProt P15056, V600E). As to the kind of experiment: Inhibition of B-RAF V600E mutant (unknown origin) incubated for 1 hr in presence of ATP by envision multilabel reader analysis.
Assay [3] addresses T2, Tyrosine-protein kinase Lck (Homo sapiens, UniProt P06239). As to the kind of experiment: Inhibition of partial length human LCK at 1000 nM by KINOMEscan assay relative to control; values are per cent of control.
Target sequence in this assay (P06239 2-509 limits assumed): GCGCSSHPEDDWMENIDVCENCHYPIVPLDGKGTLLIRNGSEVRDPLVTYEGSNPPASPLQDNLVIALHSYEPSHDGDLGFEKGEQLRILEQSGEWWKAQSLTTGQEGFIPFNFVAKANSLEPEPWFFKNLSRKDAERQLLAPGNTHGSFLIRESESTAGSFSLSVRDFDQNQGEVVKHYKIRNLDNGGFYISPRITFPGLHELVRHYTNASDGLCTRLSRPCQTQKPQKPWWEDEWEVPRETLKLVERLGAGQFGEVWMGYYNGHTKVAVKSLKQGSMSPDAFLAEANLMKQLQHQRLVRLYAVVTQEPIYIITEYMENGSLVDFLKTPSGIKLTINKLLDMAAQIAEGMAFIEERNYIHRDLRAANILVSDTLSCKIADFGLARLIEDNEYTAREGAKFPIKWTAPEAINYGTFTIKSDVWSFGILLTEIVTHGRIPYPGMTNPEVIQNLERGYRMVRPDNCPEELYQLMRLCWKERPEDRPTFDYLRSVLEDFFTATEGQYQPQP
Assay [4] has as its target T2, Tyrosine-protein kinase Lck. As to the kind of experiment: Inhibition of partial length human LCK by KINOMEscan assay.
Target sequence in this assay (P06239 whole entry): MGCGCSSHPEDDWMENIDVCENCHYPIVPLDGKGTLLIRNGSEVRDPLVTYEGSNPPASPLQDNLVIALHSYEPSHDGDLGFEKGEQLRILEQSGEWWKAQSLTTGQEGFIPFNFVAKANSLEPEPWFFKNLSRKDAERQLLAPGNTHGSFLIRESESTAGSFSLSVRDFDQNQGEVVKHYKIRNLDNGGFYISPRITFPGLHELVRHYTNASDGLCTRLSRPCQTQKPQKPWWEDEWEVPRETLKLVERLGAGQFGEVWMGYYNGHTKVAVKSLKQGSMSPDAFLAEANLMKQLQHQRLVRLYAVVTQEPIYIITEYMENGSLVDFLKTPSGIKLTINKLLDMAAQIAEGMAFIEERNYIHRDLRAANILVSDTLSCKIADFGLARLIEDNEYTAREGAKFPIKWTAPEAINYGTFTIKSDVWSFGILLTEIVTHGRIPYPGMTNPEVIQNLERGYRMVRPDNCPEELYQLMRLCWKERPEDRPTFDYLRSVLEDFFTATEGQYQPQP
Assay [5] has as its target T1, Mitogen-activated protein kinase kinase kinase 20. Kind of assay: Inhibition of ZAKapha (unknown origin) at 10 uM measured after 1 hr by Western blot analysis. In general terms: A western blot detects proteins with antibodies after separation by electrophoresis.
Target sequence in this assay (Q9NYL2 2-800 limits assumed): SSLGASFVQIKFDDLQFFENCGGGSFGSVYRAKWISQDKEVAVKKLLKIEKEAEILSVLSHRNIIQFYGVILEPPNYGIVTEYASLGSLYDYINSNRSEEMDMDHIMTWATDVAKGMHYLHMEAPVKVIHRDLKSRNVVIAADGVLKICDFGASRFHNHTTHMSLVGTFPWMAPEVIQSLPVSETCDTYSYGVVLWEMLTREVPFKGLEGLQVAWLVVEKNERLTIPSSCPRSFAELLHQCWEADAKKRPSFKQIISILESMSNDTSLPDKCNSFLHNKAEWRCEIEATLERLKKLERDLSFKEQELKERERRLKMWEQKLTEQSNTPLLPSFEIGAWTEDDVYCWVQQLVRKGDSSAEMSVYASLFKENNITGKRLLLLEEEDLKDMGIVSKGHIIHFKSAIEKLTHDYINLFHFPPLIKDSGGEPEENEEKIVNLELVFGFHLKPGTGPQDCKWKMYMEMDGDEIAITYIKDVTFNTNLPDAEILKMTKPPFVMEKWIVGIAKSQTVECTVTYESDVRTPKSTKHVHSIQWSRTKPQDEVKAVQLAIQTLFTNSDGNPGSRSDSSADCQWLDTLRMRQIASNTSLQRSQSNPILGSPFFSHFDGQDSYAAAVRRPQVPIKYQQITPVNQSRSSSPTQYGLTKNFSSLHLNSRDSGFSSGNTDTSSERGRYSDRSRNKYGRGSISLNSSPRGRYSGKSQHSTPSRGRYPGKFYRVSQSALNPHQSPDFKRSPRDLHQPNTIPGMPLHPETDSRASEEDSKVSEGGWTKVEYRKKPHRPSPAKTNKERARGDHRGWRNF
Assay [6] has the same target. Kind of assay: Inhibition of partial length human ZAK by KINOMEscan assay.
Target sequence in this assay (Q9NYL2 whole entry): as the sequence (Q9NYL2 whole entry) above
Assay [7] shares this target. Kind of assay: Inhibition of ZAKbeta (unknown origin) at 10 uM measured after 1 hr by Western blot analysis.
Target sequence in this assay (Q9NYL2 2-800 limits assumed): as the sequence (Q9NYL2 2-800 limits assumed) above
The test system of assay [8] is U2OS. As to the kind of experiment: Induction of apoptosis in ZAK knockout human U2OS cells assessed as increase in cleaved-caspase 3 level at 10 uM measured for 4 hrs. The assay is classed as functional, cell-based.
The target of assay [9] is T3, LIM domain kinase 1 (Homo sapiens, UniProt P53667). As to the kind of experiment: Inhibition of full length human LIMK1 by KINOMEscan assay.
Target sequence in this assay (P53667 whole entry, the tested form may be a part): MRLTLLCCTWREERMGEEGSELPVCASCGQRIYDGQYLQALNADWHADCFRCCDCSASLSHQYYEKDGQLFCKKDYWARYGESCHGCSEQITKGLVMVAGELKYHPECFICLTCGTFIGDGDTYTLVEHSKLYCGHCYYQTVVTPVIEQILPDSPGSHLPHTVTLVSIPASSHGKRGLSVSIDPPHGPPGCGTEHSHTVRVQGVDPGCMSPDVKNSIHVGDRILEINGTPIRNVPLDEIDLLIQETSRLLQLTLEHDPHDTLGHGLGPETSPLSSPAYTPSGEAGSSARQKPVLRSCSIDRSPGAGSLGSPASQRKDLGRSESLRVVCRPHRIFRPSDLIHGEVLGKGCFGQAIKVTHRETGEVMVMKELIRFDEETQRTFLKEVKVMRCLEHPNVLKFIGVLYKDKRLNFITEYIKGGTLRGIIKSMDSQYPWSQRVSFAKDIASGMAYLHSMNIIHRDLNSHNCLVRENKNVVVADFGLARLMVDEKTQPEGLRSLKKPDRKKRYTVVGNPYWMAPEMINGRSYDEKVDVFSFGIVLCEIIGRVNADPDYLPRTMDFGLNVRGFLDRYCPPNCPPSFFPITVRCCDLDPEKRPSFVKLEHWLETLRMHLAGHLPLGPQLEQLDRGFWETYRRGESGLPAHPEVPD
Assay [10] has as its target T3, LIM domain kinase 1. Kind of assay: Inhibition of full length human LIMK1 at 1000 nM by KINOMEscan assay relative to control; values are per cent of control.
Target sequence in this assay (P53667 whole entry, looked up, the tested form may be a part): as the sequence (P53667 whole entry, the tested form may be a part) above
The target in assay [11] is T4, LIM domain kinase 2 (Homo sapiens, UniProt P53671). As to the kind of experiment: Inhibition of full length human LIMK2 at 1000 nM by KINOMEscan assay relative to control; values are per cent of control.
Target sequence in this assay (P53671 whole entry, looked up, the tested form may be a part): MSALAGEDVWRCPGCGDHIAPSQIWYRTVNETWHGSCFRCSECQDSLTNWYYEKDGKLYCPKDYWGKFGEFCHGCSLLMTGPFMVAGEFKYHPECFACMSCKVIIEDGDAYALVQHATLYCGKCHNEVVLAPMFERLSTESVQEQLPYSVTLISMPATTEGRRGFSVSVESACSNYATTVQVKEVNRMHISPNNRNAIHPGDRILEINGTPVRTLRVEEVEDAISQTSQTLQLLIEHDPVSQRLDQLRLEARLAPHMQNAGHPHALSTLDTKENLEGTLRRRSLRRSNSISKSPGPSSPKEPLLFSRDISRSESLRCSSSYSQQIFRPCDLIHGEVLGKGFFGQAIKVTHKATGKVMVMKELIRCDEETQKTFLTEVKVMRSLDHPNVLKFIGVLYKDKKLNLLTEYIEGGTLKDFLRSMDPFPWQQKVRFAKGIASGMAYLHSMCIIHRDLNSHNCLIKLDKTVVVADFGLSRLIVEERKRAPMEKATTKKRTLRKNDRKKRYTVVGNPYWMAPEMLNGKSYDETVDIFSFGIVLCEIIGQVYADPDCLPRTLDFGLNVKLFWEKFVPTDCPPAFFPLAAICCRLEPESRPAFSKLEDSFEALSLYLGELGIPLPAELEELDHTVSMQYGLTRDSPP
Assay [12] has as its target MAP kinase p38 (Homo sapiens) (UniProt O15264+Q15759+Q16539+P53778). Kind of assay: Inhibition of p38 phosphorylation in human U2OS cells measured for 1 hr by Western blot analysis. The assay is classed as cell-based. Conditions: dose <= 10.0 µM.
Assay [13] concerns the target T1, Mitogen-activated protein kinase kinase kinase 20. Kind of assay: Inhibition of partial length human ZAK at 1000 nM by KINOMEscan assay relative to control; values are per cent of control.
Target sequence in this assay (Q9NYL2 2-800 limits assumed): as the sequence (Q9NYL2 2-800 limits assumed) above
Assay [14] has as its system U2OS. Kind of assay: Induction of apoptosis in human U2OS cells assessed as reduction in cell death at 10 uM measured after 24 hrs in presence of doxorubicin. The format is functional, cell-based.
In assay [15] the target is T4, LIM domain kinase 2. As to the kind of experiment: Inhibition of full length human LIMK2 by KINOMEscan assay.
Target sequence in this assay (P53671 whole entry, the tested form may be a part): as the sequence (P53671 whole entry, looked up, the tested form may be a part) above
Assay [16] deals with U2OS. As to the kind of experiment: Induction of apoptosis in ZAK knockout human U2OS cells assessed as reduction in cell death at 10 uM measured after 24 hrs in presence of doxorubicin. The format is functional, cell-based.
In assay [17] the test system is U2OS. Kind of assay: Induction of apoptosis in human U2OS cells assessed as increase in cleaved-caspase 3 level at 100 uM measured for 4 hrs. The assay is classed as functional, cell-based.

Chain of Serine/threonine-protein kinase B-raf (P15056 2-766 V600E limits assumed): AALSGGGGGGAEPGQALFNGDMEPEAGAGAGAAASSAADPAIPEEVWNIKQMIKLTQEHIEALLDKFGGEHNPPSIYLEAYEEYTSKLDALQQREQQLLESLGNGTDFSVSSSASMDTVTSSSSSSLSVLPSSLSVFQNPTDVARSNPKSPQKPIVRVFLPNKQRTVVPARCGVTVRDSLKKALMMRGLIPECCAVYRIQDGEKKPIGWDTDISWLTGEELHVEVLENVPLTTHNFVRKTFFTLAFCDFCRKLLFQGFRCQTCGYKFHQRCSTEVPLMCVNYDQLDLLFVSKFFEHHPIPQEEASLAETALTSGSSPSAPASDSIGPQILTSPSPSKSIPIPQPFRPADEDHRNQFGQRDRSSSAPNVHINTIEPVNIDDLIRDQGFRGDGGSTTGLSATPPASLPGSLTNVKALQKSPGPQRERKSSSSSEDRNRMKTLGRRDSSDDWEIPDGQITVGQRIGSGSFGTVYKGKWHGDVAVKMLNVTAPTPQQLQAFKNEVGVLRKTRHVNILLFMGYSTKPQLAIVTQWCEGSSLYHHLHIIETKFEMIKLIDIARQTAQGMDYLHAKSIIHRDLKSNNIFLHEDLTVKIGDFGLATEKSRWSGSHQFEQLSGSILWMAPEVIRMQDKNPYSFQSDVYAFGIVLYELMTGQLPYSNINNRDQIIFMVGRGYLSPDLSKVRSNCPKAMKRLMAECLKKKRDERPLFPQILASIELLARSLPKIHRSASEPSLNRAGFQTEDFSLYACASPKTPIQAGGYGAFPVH

For the molecule `C=CC(=O)N1CC[C@@H](Oc2n[nH]c3ncc(-c4cn(-c5c(F)ccc(NS(=O)(=O)c6cccc(-c7ccccc7)c6)c5F)nn4)cc23)C1`, the negative-log IC50 (pIC50) in assay [1] is 7.91.

Turning to `C=CC(=O)N1CC[C@H](Oc2n[nH]c3ncc(-c4cn(-c5c(F)ccc(NS(=O)(=O)c6cccc(-c7ccccc7)c6)c5F)nn4)cc23)C1`, in assay [1], the pIC50 is 8.00.

For the molecule `C=CC(=O)N1CCCC(NC(=O)CCCCCCOc2n[nH]c3ncc(-c4cn(-c5c(F)ccc(NS(=O)(=O)c6cccc(-c7ccccc7)c6)c5F)nn4)cc23)C1` (configuration not stated), the pIC50 in assay [1] was 7.46.

With `C=CC(=O)NCCCCCCN1CCC(COc2n[nH]c3ncc(-c4cn(-c5c(F)ccc(NS(=O)(=O)c6cccc(-c7ccccc7)c6)c5F)nn4)cc23)CC1`, in assay [1], the negative logarithm of the IC50 (pIC50) was 8.00.

Regarding `COc1n[nH]c2ncc(-c3cn(-c4c(F)ccc(NS(=O)(=O)c5cccc(-c6ccccc6)c5)c4F)nn3)cc12`, the pIC50 in assay [2] was under 6.00; in [1], 8.06.

For `C=CC(=O)N1CCC(Oc2n[nH]c3ncc(-c4cn(-c5c(F)ccc(NS(=O)(=O)c6cccc(-c7ccccc7)c6)c5F)nn4)cc23)C1` (configuration not stated), the residual activity in assay [3] was 8%; at LIM domain kinase 1 [10], 9%; on LIM domain kinase 2 [11], 6%; in assay [13] it was -4%. The pIC50 was 6.69 in [4]; under 6.00 in assay [2]; 7.94 in assay [6]; 7.94 in [1]; 7.91 against LIM domain kinase 1 [9]; 7.67 against LIM domain kinase 2 [15]. In addition, the inhibition entry in assay [5] and in assay [7] was “Active” each time. Also, the result in the assay on U2OS [8] and in the assay with U2OS [16] was inactive. In assay [12], the inhibition result was “Dose-Dependent Effect”. In addition, the result in the assay on U2OS [14] was Active.

With `C=CC(=O)NCCCOc1n[nH]c2ncc(-c3cn(-c4c(F)ccc(NS(=O)(=O)c5cccc(-c6ccccc6)c5)c4F)nn3)cc12`, the pIC50 in [1] was 8.04.

Regarding `C=CC(=O)N1CCC(Oc2n[nH]c3ncc(-c4cn(-c5c(F)ccc(NS(=O)(=O)c6ccccc6)c5F)nn4)cc23)C1` (configuration not stated), the values for the pIC50 in assay [2] and in [1] were 6.61 and 8.00, respectively.

For the molecule `COc1ccc(C[C@H]2NC[C@H](O)[C@H]2OC(C)=O)cc1`, in assay [12], the inhibition entry was “Dose-Dependent Effect”.

As to `COc1cccc2c1C(=O)c1c(O)c3c(c(O)c1C2=O)C[C@@](O)(C(=O)CO)C[C@@H]3O[C@H]1C[C@H](N)[C@H](O)[C@H](C)O1`, in the assay with U2OS [17], the result was Active.

For the origin of these results see ChEMBL document CHEMBL5338797, “Rational Design of Covalent Kinase Inhibitors by an Integrated Computational Workflow (Kin-Cov)” (J Med Chem, 2023).
